Results on 33 compounds are retold here after the SangsterLogP compilation.

Usually logP stands for the decadic logarithm of the partition coefficient of the neutral form, usually between octanol and water. A high value points to higher lipophilicity. The logD is the decadic logarithm of the distribution of all forms, ionised or not, between an organic phase and buffer at a given pH. The low end stands for lower lipophilicity, the high end for higher lipophilicity.

Experiment in one data set: not given
Settings: not given
Compound `CC(CC(=O)c1ccc(-c2ccccc2)cc1)C(=O)O` (stereo not drawn) had a logP of 3.13.

A short description of the next data set: method code SF-AS, from DOI: 10.1016/s0021-9673(01)95502-5. As to conditions: pH 3.4.
As to `COc1ccc(C(=O)CCCC(=O)O)cc1Cl`, the logD worked out at 2.17.
The compound `O=C(O)CCCC(=O)c1ccc(-c2ccccc2)cc1` displayed a logD of 3.35.
The same measure, in the same setting: the same measure for `CCC(O)(C(=O)O)c1ccc(CC(C)C)cc1` (stereo not drawn): 3.37; for `CC(CC(=O)O)CC(=O)c1ccc(-c2ccccc2)cc1` (stereo not drawn): 3.82.
On the same count and under the same terms, the same measure for `O=C(O)CCC(=O)c1ccccc1`: 1.3; for `COc1ccc(C(=O)CCC(=O)O)cc1`: 1.38.
In turn, `COc1ccc(C(=O)CC(C)CC(=O)O)cc1Cl` (stereo not drawn) gave a logD of 2.6.
On the same count and under the same terms, in the case of `CC(CC(=O)c1ccccc1)C(=O)O` (stereo not drawn) it was 1.62.

The data set is the same for the next values; noted with them: pH 3.5.
For the compound `CC(C)COc1ccc(C(=O)CC(C)C(=O)O)cc1Cl` (stereo not drawn), the logD worked out at 3.6.
`CC(C)c1ccc(C(=O)CCC(=O)O)cc1`: the logD is 2.7.
`CCCCCCOc1ccc(C(=O)CCC(=O)O)cc1` showed a logD of 3.88.
The compound `CC(C)Cc1ccc(C(=O)CCC(=O)O)cc1` gave a logD of 3.2.
On the same count and under the same terms, in the case of `O=C(O)CCC(=O)c1ccc(C2CCCCC2)c(Cl)c1` it was 4.36; in that of `O=C(O)CCC(=O)c1ccc(C2CCCCC2)cc1`, 3.76; in that of `CC(C)c1ccc(CC(=O)O)cc1`, 2.85.
In turn, `COc1ccc(C(C)(O)C(=O)O)cc1Cl` (stereo not drawn) had a logD of 1.26.
The same measure, in the same setting: in the case of `CC(CC(=O)O)CC(=O)c1ccc(C2CCCCC2)cc1` (stereo not drawn) it was 4.38; in that of `CC(O)(C(=O)O)c1ccc(C2CCCCC2)cc1` (stereo not drawn), 3.26.
`CCC(O)(C(=O)O)c1ccc(-c2ccccc2)cc1` (stereo not drawn) displayed a log distribution coefficient (logD) of 3.37.
`O=C(O)CCC(=O)c1ccc(Br)cc1` returned a logD of 2.28.
Compound `O=C(O)CCCC(=O)c1ccc(C2CCCCC2)cc1` yielded a logD of 3.95.
`CC(C)c1ccc(C(=O)CCCC(=O)O)cc1` returned a logD of 2.89.
Compound `CC(C)Oc1ccc(C(=O)CC(C)C(=O)O)cc1` (stereo not drawn) came in with a logD of 2.5.
Regarding `COc1ccc(C(=O)CCC(=O)O)cc1Cl`, the logD was determined as 1.98.
On the same count and under the same terms, in the case of `CC(CC(=O)c1ccc(C2CCCCC2)cc1)C(=O)O` (stereo not drawn) it was 4.08; in that of `CC(C)Oc1ccc(C(=O)CCC(=O)O)cc1`, 2.18.
The same measure, in the same setting: in the case of `CC(C)Oc1ccc(C(=O)CCC(=O)O)cc1Cl` it was 2.78; in that of `CCc1ccc(CC(=O)O)cc1`, 2.43; in that of `CC(CC(=O)O)CC(=O)c1ccc(OC(C)C)c(Cl)c1` (stereo not drawn), 3.4.
On to `CC(C)(C)c1ccc(CC(=O)O)cc1`, for which the logD came to 3.13.
Still for that read-out and setting: the same measure for `COc1ccc(C(C)(O)C(=O)O)cc1` (stereo not drawn): 0.81; for `CC(C)Cc1ccc(C(=O)CCCC(=O)O)cc1`: 3.39.
